According to the NIST ThermoML archive (doi:10.1016/j.jct.2016.06.017):

Tests used:
[1] = xn = mol fraction of the nth substance listed; conditions: 100 kPa, Liquid, Frequency=0.01 MHz, Alternating current cell with electrodes
[2] = 100 kPa, Liquid, Frequency=0.01 MHz, Alternating current cell with electrodes

O=C1CCCO1 [γ-butyrolactone] + CCCCn1cc[n+](C)c1.N#CN=C=[N-]
electrical conductivity [S/m], [1]
Conditions	x2 = 0.0504	x2 = 0.1002	x2 = 0.2002	x2 = 0.2984	x2 = 0.4005	x2 = 0.4954	x2 = 0.6957	x2 = 0.8871
273.15 K	1.05	1.4	1.518	1.35	1.13	0.924	0.639	0.454
283.15 K	1.27	1.71	1.918	1.77	1.54	1.32	0.968	0.736
293.15 K	1.5	2.03	2.35	2.24	2.012	1.78	1.37	1.09
298.15 K	1.62	2.2	2.58	2.49	2.27	2.03	1.606	1.3
303.15 K	1.74	2.38	2.814	2.75	2.53	2.29	1.85	1.53
313.15 K	1.98	2.73	3.301	3.29	3.101	2.87	2.401	2.04
323.15 K	2.23	3.09	3.81	3.87	3.707	3.48	3.009	2.625

CCCCn1cc[n+](C)c1.N#CN=C=[N-] [1-butyl-3-methylimidazolium dicyanamide]
[2]
Conditions	electrical conductivity [S/m]
273.15 K	0.383
283.15 K	0.636
293.15 K	0.972
298.15 K	1.17
303.15 K	1.39
313.15 K	1.89
323.15 K	2.46

CCCCn1cc[n+](C)c1.N#CN=C=[N-] [1-butyl-3-methylimidazolium dicyanamide] + O=C1CCCO1
[1], x1 = 1
Conditions	electrical conductivity [S/m]
273.15 K	0.383
283.15 K	0.636
293.15 K	0.972
298.15 K	1.17
303.15 K	1.39
313.15 K	1.89
323.15 K	2.46
